Experimental data from PubChem BioAssay (NCI).
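Five compound concentrations were applied to cells in 96-well plates for 48 hours; endpoints were derived by simple linear interpolation of the resulting dose-response curve. Definition used: TGI = concentration required for complete inhibition of growth.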

Assays:
Test in all cases: NCI-60 cell line screen, 48 h
A498 renal = system: A498 renal
ACHN renal = system: ACHN renal
BT-549 breast = system: BT-549 breast
EKVX NSCLC = system: EKVX NSCLC
HCC-2998 colon = system: HCC-2998 colon
HCT-15 colon = system: HCT-15 colon
HOP-92 NSCLC = system: HOP-92 NSCLC
HS 578T breast = system: HS 578T breast
HT29 colon = system: HT29 colon
LOX IMVI melanoma = system: LOX IMVI melanoma
MCF7 breast = system: MCF7 breast
MDA-MB-231 breast = system: MDA-MB-231 breast
NCI-H23 lung = system: NCI-H23 lung
NCI/ADR-RES ovarian = system: NCI/ADR-RES ovarian
OVCAR-5 ovarian = system: OVCAR-5 ovarian
PC-3 prostate = system: PC-3 prostate
RPMI-8226 leukemia = system: RPMI-8226 leukemia
SF-268 CNS = system: SF-268 CNS
SN12C renal = system: SN12C renal

SMILES	TGI (A498 renal)	TGI (ACHN renal)	TGI (BT-549 breast)	TGI (EKVX NSCLC)	TGI (HCC-2998 colon)	TGI (HCT-15 colon)	TGI (HOP-92 NSCLC)	TGI (HS 578T breast)	TGI (HT29 colon)	TGI (LOX IMVI melanoma)	TGI (MCF7 breast)	TGI (MDA-MB-231 breast)	TGI (NCI-H23 lung)	TGI (NCI/ADR-RES ovarian)	TGI (OVCAR-5 ovarian)	TGI (PC-3 prostate)	TGI (RPMI-8226 leukemia)	TGI (SF-268 CNS)	TGI (SN12C renal)
COc1ccc(C2C(C=O)C(N3CCN(C)CC3)=Nc3nc4ccccc4n32)cc1 (stereo unspecified)	29.1 µM	41.8 µM	29.4 µM	97.3 µM	33.9 µM	46.5 µM	24.3 µM	> 100 µM	36.8 µM	34.1 µM	36.3 µM	31.4 µM	44.8 µM	53.7 µM	59.7 µM	36.9 µM	17.3 µM	51.6 µM	40.9 µM
COc1ccc(C(SCC(N)C(=O)O)(c2ccc(OC)cc2)c2ccc(OC)cc2)cc1 (stereo unspecified)	22.7 µM	18.6 µM	28 µM	21.9 µM	17.4 µM	18.1 µM	31.6 µM	19.5 µM	16.7 µM	17.2 µM	16.5 µM	19.6 µM	20.6 µM	19.4 µM	20.7 µM	17.9 µM	> 31.6 µM	19.9 µM	17.7 µM
O=C1C[C@H](CCC(=O)OCc2ccccc2)NC(=O)C[C@H](CCC(=O)OCc2ccccc2)NC(=O)C[C@H](CCC(=O)OCc2ccccc2)N1	30.8 µM	69.4 µM	> 100 µM	> 100 µM	> 100 µM	> 100 µM	18.8 µM	> 100 µM	> 100 µM	> 100 µM	> 100 µM	78.3 µM	> 100 µM	> 100 µM	> 100 µM	> 100 µM	> 100 µM	–	> 100 µM
O=C1COCCN1C(=O)c1ccccc1Cl	> 100 µM	> 100 µM	> 100 µM	> 100 µM	> 100 µM	> 100 µM	> 100 µM	> 100 µM	> 100 µM	> 100 µM	> 100 µM	> 100 µM	> 100 µM	> 100 µM	> 100 µM	> 100 µM	> 100 µM	> 100 µM	> 100 µM
O=C(O)C1=NN(c2ccc(S(=O)(=O)O)cc2)C2(C1)SCC(=O)N2c1nc2ccccc2s1 (stereo unspecified)	> 100 µM	> 100 µM	> 100 µM	> 100 µM	> 100 µM	> 100 µM	> 100 µM	> 100 µM	> 100 µM	> 100 µM	> 100 µM	> 100 µM	> 100 µM	> 100 µM	> 100 µM	> 100 µM	> 100 µM	> 100 µM	> 100 µM
CN1CCc2cc(N)cc3c2C1Cc1ccc2c(c1-3)OCO2 (stereo unspecified)	> 100 µM	> 75.5 µM	> 100 µM	> 100 µM	51.4 µM	> 100 µM	66.9 µM	82.2 µM	> 100 µM	37.2 µM	> 100 µM	> 100 µM	> 100 µM	> 83 µM	> 77.7 µM	> 100 µM	46.9 µM	> 100 µM	> 88.6 µM
COC(=O)[C@H](COC(=O)/C=C/c1ccc(OC(C)=O)c(OC(C)=O)c1)NC(=O)/C=C/c1ccc(OC(C)=O)c(OC(C)=O)c1	> 100 µM	42.2 µM	34.9 µM	38.9 µM	36.6 µM	70.6 µM	49.3 µM	49.7 µM	54 µM	95.6 µM	> 100 µM	36.8 µM	47.6 µM	> 100 µM	49.7 µM	31.2 µM	> 100 µM	–	36.4 µM
CCOC(=O)c1ccc(Nc2nc3cc(C(F)(F)F)ccc3nc2C(=O)OCC)cc1	> 100 µM	> 100 µM	> 100 µM	> 100 µM	69.5 µM	> 100 µM	> 100 µM	> 100 µM	> 100 µM	> 100 µM	> 100 µM	> 100 µM	> 100 µM	> 100 µM	> 100 µM	> 100 µM	> 100 µM	> 100 µM	> 100 µM
Cc1cc(O)c2c(c1)CC(O)C1=C2C(=O)c2c(O)ccc(OC3CC(O)C(OC4CC(OC5CCC(O)C(C)O5)C(O)C(C)O4)C(C)O3)c2C1=O (stereo unspecified)	4.91 µM	2.95 µM	3.42 µM	4.27 µM	3.58 µM	4.64 µM	3.54 µM	6.36 µM	5.6 µM	2.89 µM	2.96 µM	3.58 µM	3.88 µM	9.61 µM	12.8 µM	3.96 µM	3.22 µM	3.43 µM	3.25 µM
Cc1nnc2n1N=C(c1cc(F)c(Cl)cc1Cl)/C(=C/c1ccc3c(c1)OCO3)S2	> 100 µM	> 100 µM	> 100 µM	84.3 µM	> 100 µM	> 100 µM	> 100 µM	> 100 µM	> 100 µM	> 100 µM	> 100 µM	> 100 µM	> 100 µM	> 100 µM	> 100 µM	> 100 µM	> 100 µM	> 100 µM	> 100 µM
N#CC1(C#N)C(c2ccccc2)C=CC(c2ccc([N+](=O)[O-])cc2)C1(C#N)C#N (stereo unspecified)	32.1 µM	9.54 µM	24.3 µM	28.6 µM	42.9 µM	16.5 µM	9.88 µM	> 59.9 µM	> 38.5 µM	6.87 µM	21.1 µM	28.1 µM	27.4 µM	> 74.4 µM	31.9 µM	25 µM	> 25.6 µM	51.6 µM	12.2 µM
c1cc(C[S+]2CCCC2)sc1C[S+]1CCCC1	> 100 µM	> 100 µM	> 100 µM	> 100 µM	> 100 µM	> 100 µM	> 100 µM	> 100 µM	> 100 µM	> 100 µM	> 100 µM	> 100 µM	> 100 µM	> 100 µM	> 100 µM	> 100 µM	> 100 µM	> 100 µM	> 100 µM
